Results reported in ChEMBL document CHEMBL3600371, “Design and synthesis of imidazole N-H substituted amide prodrugs as inhibitors of hepatitis C virus replication” (Bioorg Med Chem Lett, 2015).

Key:
[1] = Half life in Sprague-Dawley rat at 5 mg/kg, po; type: ADME, organism-based; conditions: in vivo
Rattus norvegicus [2] = test: Drug level in Sprague-Dawley rat treated with ((S,S)-5,5'-([1,1'-Biphenyl]-4,4'-diyl)bis(2-((S)-1-((S)-2-((methoxycarbonyl)amino)-3-methylbutanoyl)pyrrolidin-2-yl)-1H-imidazole-5,1-diyl))bis(2-oxoethane-2,1-diyl)diacetate at 5 mg/kg, po measured over 9 hrs; type: ADME, organism-based; conditions: in vivo
[3] = Tmax in Sprague-Dawley rat at 5 mg/kg, po; type: ADME, organism-based; conditions: in vivo
[4] = Stability of the compound in water at pH 2; type: physicochemical; conditions: buffer
[5] = Mean residence time in Sprague-Dawley rat at 5 mg/kg, po; type: ADME, organism-based; conditions: in vivo
[6] = Stability of the compound in blood (unknown origin); type: ADME, tissue-based
[7] = AUC (0 to 8 hrs) in Sprague-Dawley rat at 5 mg/kg, po; type: ADME, organism-based; design: time < 8 hr, dose 5 mg/kg, route oral; conditions: in vivo
Hepatitis C virus [8] = test: microbe, parasite or virus in culture; conditions: JFH-1, Huh-7
Description: Antiviral activity against HCV genotype 1b JFH-1 infected in human HuH7 cells assessed as inhibition of viral replication

[9] = Stability of the compound in water at pH 7; type: physicochemical; conditions: buffer
[10] = Cmax in Sprague-Dawley rat at 5 mg/kg, po; type: ADME, organism-based; design: dose 5 mg/kg, route oral; conditions: in vivo
[11] = AUC (0 to infinity) in Sprague-Dawley rat at 5 mg/kg, po; type: ADME, organism-based; design: dose 5 mg/kg, route oral, time infinity; conditions: in vivo
Hepatitis C virus [12] = test: Antiviral activity against HCV genotype 1b replicon infected in human HuH7 cells assessed as inhibition of viral RNA replication by luciferase reporter assay; type: functional, organism-based, Hepacivirus hominis; conditions: Huh-7
Rattus norvegicus [13] = test: Half life in Sprague-Dawley rat assessed as daclatasvir at 5 mg/kg, po; type: ADME, organism-based; conditions: in vivo
[14] = Half life in blood (unknown origin); type: ADME, tissue-based
Rattus norvegicus [15] = test: Mean residence time in Sprague-Dawley rat assessed as daclatasvir at 5 mg/kg, po; type: ADME, organism-based; conditions: in vivo
Rattus norvegicus [16] = test: Cmax in Sprague-Dawley rat assessed as daclatasvir at 5 mg/kg, po; type: ADME, organism-based; design: dose 5 mg/kg, route oral; conditions: in vivo
Rattus norvegicus [17] = test: Prodrug conversion in Sprague-Dawley rat assessed as formation of daclatasvir at 5 mg/kg, po measured over 9 hrs; type: ADME, organism-based; conditions: in vivo
Rattus norvegicus [18] = test: AUC (0 to infinity) in Sprague-Dawley rat assessed as daclatasvir at 5 mg/kg, po; type: ADME, organism-based; design: dose 5 mg/kg, time infinity, route oral; conditions: in vivo
Rattus norvegicus [19] = test: Tmax in Sprague-Dawley rat assessed as daclatasvir at 5 mg/kg, po; type: ADME, organism-based; conditions: in vivo
Rattus norvegicus [20] = test: AUC (0 to 8 hrs) in Sprague-Dawley rat assessed as daclatasvir at 5 mg/kg, po; type: ADME, organism-based; design: time < 8 hr, dose 5 mg/kg, route oral; conditions: in vivo
Hepatitis C virus [21] = test: Antiviral activity against HCV genotype 1 in patient assessed as virological response rate; type: functional, Hepacivirus hominis

Structure (SMILES): COC(=O)N[C@H](C(=O)N1CCC[C@H]1c1nc(-c2ccc(-c3ccc(-c4c[nH]c([C@@H]5CCCN5C(=O)[C@@H](NC(=O)OC)C(C)C)n4)cc3)cc2)c[nH]1)C(C)C
- half-life [1]: 1.66 h
- Drug metabolism (Rattus norvegicus [2]): metabolite_detected
- Tmax [3]: 3.01 h
- Stability [4]: Stable
- MRT [5]: 3.43 h
- Stability [6]: Stable
- AUC(0-t) at 8 h [7]: 3210 ng·h/mL
- EC50 (Hepatitis C virus [8]): 0.028 nM
- Stability [9]: Stable
- Cmax [10]: 484 ng/mL
- AUC(0-inf) [11]: 3320 ng·h/mL

Structure (SMILES): COC(=O)N[C@H](C(=O)N1CCC[C@H]1c1ncc(-c2ccc(-c3ccc(-c4cnc([C@@H]5CCCN5C(=O)[C@@H](NC(=O)OC)C(C)C)n4C(C)=O)cc3)cc2)n1C(C)=O)C(C)C
- EC50 (Hepatitis C virus [12]): 12 nM

Structure (SMILES): CCC(=O)n1c(-c2ccc(-c3ccc(-c4cnc([C@@H]5CCCN5C(=O)[C@@H](NC(=O)OC)C(C)C)n4C(=O)CC)cc3)cc2)cnc1[C@@H]1CCCN1C(=O)[C@@H](NC(=O)OC)C(C)C
- EC50 (Hepatitis C virus [12]): 39 nM

Structure (SMILES): CCCC(=O)n1c(-c2ccc(-c3ccc(-c4cnc([C@@H]5CCCN5C(=O)[C@@H](NC(=O)OC)C(C)C)n4C(=O)CCC)cc3)cc2)cnc1[C@@H]1CCCN1C(=O)[C@@H](NC(=O)OC)C(C)C
- EC50 (Hepatitis C virus [12]): 85 nM

Structure (SMILES): COC(=O)N[C@H](C(=O)N1CCC[C@H]1c1ncc(-c2ccc(-c3ccc(-c4cnc([C@@H]5CCCN5C(=O)[C@@H](NC(=O)OC)C(C)C)n4C(=O)C(C)C)cc3)cc2)n1C(=O)C(C)C)C(C)C
- EC50 (Hepatitis C virus [12]): 131 nM

Structure (SMILES): COC(=O)N[C@H](C(=O)N1CCC[C@H]1c1ncc(-c2ccc(-c3ccc(-c4cnc([C@@H]5CCCN5C(=O)[C@@H](NC(=O)OC)C(C)C)n4C(=O)C(C)(C)C)cc3)cc2)n1C(=O)C(C)(C)C)C(C)C
- EC50 (Hepatitis C virus [12]): > 100000 nM

Structure (SMILES): COC(=O)N[C@H](C(=O)N1CCC[C@H]1c1ncc(-c2ccc(-c3ccc(-c4cnc([C@@H]5CCCN5C(=O)[C@@H](NC(=O)OC)C(C)C)n4C(=O)CC(C)(C)C)cc3)cc2)n1C(=O)CC(C)(C)C)C(C)C
- EC50 (Hepatitis C virus [12]): > 100000 nM

Structure (SMILES): CCCCC(=O)n1c(-c2ccc(-c3ccc(-c4cnc([C@@H]5CCCN5C(=O)[C@@H](NC(=O)OC)C(C)C)n4C(=O)CCCC)cc3)cc2)cnc1[C@@H]1CCCN1C(=O)[C@@H](NC(=O)OC)C(C)C
- EC50 (Hepatitis C virus [12]): 231 nM

Structure (SMILES): CCCCCC(=O)n1c(-c2ccc(-c3ccc(-c4cnc([C@@H]5CCCN5C(=O)[C@@H](NC(=O)OC)C(C)C)n4C(=O)CCCCC)cc3)cc2)cnc1[C@@H]1CCCN1C(=O)[C@@H](NC(=O)OC)C(C)C
- EC50 (Hepatitis C virus [12]): 324 nM

Structure (SMILES): CCCCCCC(=O)n1c(-c2ccc(-c3ccc(-c4cnc([C@@H]5CCCN5C(=O)[C@@H](NC(=O)OC)C(C)C)n4C(=O)CCCCCC)cc3)cc2)cnc1[C@@H]1CCCN1C(=O)[C@@H](NC(=O)OC)C(C)C
- EC50 (Hepatitis C virus [12]): 542 nM

Structure (SMILES): COC(=O)N[C@H](C(=O)N1CCC[C@H]1c1ncc(-c2ccc(-c3ccc(-c4cnc([C@@H]5CCCN5C(=O)[C@@H](NC(=O)OC)C(C)C)n4C(=O)CC(C)CC(C)(C)C)cc3)cc2)n1C(=O)CC(C)CC(C)(C)C)C(C)C (some centres not stated)
- EC50 (Hepatitis C virus [12]): > 100000 nM

Structure (SMILES): COC(=O)N[C@H](C(=O)N1CCC[C@H]1c1ncc(-c2ccc(-c3ccc(-c4cnc([C@@H]5CCCN5C(=O)[C@@H](NC(=O)OC)C(C)C)n4C(=O)CC4CCCCC4)cc3)cc2)n1C(=O)CC1CCCCC1)C(C)C
- EC50 (Hepatitis C virus [12]): 110 nM

Structure (SMILES): COC(=O)N[C@H](C(=O)N1CCC[C@H]1c1ncc(-c2ccc(-c3ccc(-c4cnc([C@@H]5CCCN5C(=O)[C@@H](NC(=O)OC)C(C)C)n4C(=O)CCC4CCCCC4)cc3)cc2)n1C(=O)CCC1CCCCC1)C(C)C
- EC50 (Hepatitis C virus [12]): 124 nM

Structure (SMILES): COC(=O)N[C@H](C(=O)N1CCC[C@H]1c1ncc(-c2ccc(-c3ccc(-c4cnc([C@@H]5CCCN5C(=O)[C@@H](NC(=O)OC)C(C)C)n4C(=O)CCC4CCCC4)cc3)cc2)n1C(=O)CCC1CCCC1)C(C)C
- EC50 (Hepatitis C virus [12]): 195 nM

Structure (SMILES): COC(=O)N[C@H](C(=O)N1CCC[C@H]1c1ncc(-c2ccc(-c3ccc(-c4cnc([C@@H]5CCCN5C(=O)[C@@H](NC(=O)OC)C(C)C)n4C(=O)OC)cc3)cc2)n1C(=O)OC)C(C)C
- EC50 (Hepatitis C virus [12]): > 100000 nM

Structure (SMILES): CCOC(=O)n1c(-c2ccc(-c3ccc(-c4cnc([C@@H]5CCCN5C(=O)[C@@H](NC(=O)OC)C(C)C)n4C(=O)OCC)cc3)cc2)cnc1[C@@H]1CCCN1C(=O)[C@@H](NC(=O)OC)C(C)C
- EC50 (Hepatitis C virus [12]): > 100000 nM

Structure (SMILES): CCCOC(=O)n1c(-c2ccc(-c3ccc(-c4cnc([C@@H]5CCCN5C(=O)[C@@H](NC(=O)OC)C(C)C)n4C(=O)OCCC)cc3)cc2)cnc1[C@@H]1CCCN1C(=O)[C@@H](NC(=O)OC)C(C)C
- EC50 (Hepatitis C virus [12]): > 100000 nM

Structure (SMILES): COC(=O)N[C@H](C(=O)N1CCC[C@H]1c1ncc(-c2ccc(-c3ccc(-c4cnc([C@@H]5CCCN5C(=O)[C@@H](NC(=O)OC)C(C)C)n4C(=O)OC(C)C)cc3)cc2)n1C(=O)OC(C)C)C(C)C
- EC50 (Hepatitis C virus [12]): > 100000 nM

Structure (SMILES): COC(=O)N[C@H](C(=O)N1CCC[C@H]1c1ncc(-c2ccc(-c3ccc(-c4cnc([C@@H]5CCCN5C(=O)[C@@H](NC(=O)OC)C(C)C)n4C(=O)OC(C)(C)C)cc3)cc2)n1C(=O)OC(C)(C)C)C(C)C
- EC50 (Hepatitis C virus [12]): > 100000 nM

Structure (SMILES): COC(=O)N[C@H](C(=O)N1CCC[C@H]1c1ncc(-c2ccc(-c3ccc(-c4cnc([C@@H]5CCCN5C(=O)[C@@H](NC(=O)OC)C(C)C)n4C(=O)OCC(C)=O)cc3)cc2)n1C(=O)OCC(C)=O)C(C)C
- EC50 (Hepatitis C virus [12]): > 100000 nM

Structure (SMILES): COC(=O)N[C@H](C(=O)N1CCC[C@H]1c1ncc(-c2ccc(-c3ccc(-c4cnc([C@@H]5CCCN5C(=O)[C@@H](NC(=O)OC)C(C)C)n4C(=O)COC(C)=O)cc3)cc2)n1C(=O)COC(C)=O)C(C)C
- t1/2 (Rattus norvegicus [13]): 2.93 h
- half-life [14]: < 0.5 h
- EC50 (Hepatitis C virus [12]): 0.08 nM
- Stability [4]: Stable
- MRT (Rattus norvegicus [15]): 4.01 h
- Cmax (Rattus norvegicus [16]): 341 ng/mL
- Drug metabolism (Rattus norvegicus [17]): metabolite_detected
- AUC (Rattus norvegicus [18]): 3440 ng·h/mL
- Tmax (Rattus norvegicus [19]): 4.05 h
- Stability [9]: Stable
- AUC (Rattus norvegicus [20]): 3330 ng·h/mL

Structure (SMILES): COC(=O)N[C@H](C(=O)N1CCC[C@H]1c1ncc(-c2ccc(-c3ccc(-c4cnc([C@@H]5CCCN5C(=O)[C@@H](NC(=O)OC)C(C)C)n4C(=O)c4ccccc4)cc3)cc2)n1C(=O)c1ccccc1)C(C)C
- EC50 (Hepatitis C virus [12]): 155 nM

Structure (SMILES): COC(=O)N[C@H](C(=O)N1CCC[C@H]1c1ncc(-c2ccc(-c3ccc(-c4cnc([C@@H]5CCCN5C(=O)[C@@H](NC(=O)OC)C(C)C)n4C(=O)c4ccc(Cl)cc4)cc3)cc2)n1C(=O)c1ccc(Cl)cc1)C(C)C
- EC50 (Hepatitis C virus [12]): 77 nM

Structure (SMILES): COC(=O)N[C@H](C(=O)N1CCC[C@H]1c1ncc(-c2ccc(-c3ccc(-c4cnc([C@@H]5CCCN5C(=O)[C@@H](NC(=O)OC)C(C)C)n4C(=O)c4ccc(C)cc4)cc3)cc2)n1C(=O)c1ccc(C)cc1)C(C)C
- EC50 (Hepatitis C virus [12]): 231 nM

Structure (SMILES): COC(=O)N[C@H](C(=O)N1CCC[C@H]1c1ncc(-c2ccc(-c3ccc(-c4cnc([C@@H]5CCCN5C(=O)[C@@H](NC(=O)OC)C(C)C)n4C(=O)Cc4ccccc4)cc3)cc2)n1C(=O)Cc1ccccc1)C(C)C
- EC50 (Hepatitis C virus [12]): 687 nM

Structure (SMILES): COC(=O)N[C@H](C(=O)N1CCC[C@H]1c1ncc(-c2ccc(-c3ccc(-c4cnc([C@@H]5CCCN5C(=O)[C@@H](NC(=O)OC)C(C)C)n4C(=O)CCc4ccccc4)cc3)cc2)n1C(=O)CCc1ccccc1)C(C)C
- EC50 (Hepatitis C virus [12]): 988 nM

Structure (SMILES): NC(=O)c1ncn([C@@H]2O[C@H](CO)[C@@H](O)[C@H]2O)n1 [RIBAVIRIN]
- Activity (Hepatitis C virus [21]): <50%
